This is an account of results in PMC5736175, “Nicotinic alpha 7 receptor agonists EVP-6124 and BMS-933043, attenuate scopolamine-induced deficits in visuo-spatial paired associates learning” (PLoS ONE, 2017).

Data set [1] can be described thus: Plasma concentration in vsPAL subjects immediately after completion of testing (LC-MS/MS). The note with it: individual subjects. The protocol:
For all compounds, plasma pharmacokinetic studies were conducted in a separate cohort of cynomolgus monkeys (N = 2–3 subjects per dose) before beginning vsPAL testing to help guide dose selection. Blood samples were obtained with the animals awake and sitting in a primate chair. For most test sessions with BMS-933043 and EVP-6124, plasma samples were also taken from a subset of vsPAL subjects (N = 4–5) immediately after completion of testing (mean (SD) sample collection time = 69.8 (9.8) min post injection).
(§1) Plasma concentrations of test compounds were determined using LC-MS/MS assays. In brief, 50 μL plasma and sample containing compounds was extracted by protein precipitation method with 150 μL acetonitrile containing an internal standard. A 5 μL sample of supernatant was injected into the LC-MS/MS system. Analytes were separated by reversed phase chromatography and detection of each analyte was achieved through selected reaction monitoring mode of mass spectrometry. Samples were quantified by calculated peak area ratio of analyte and internal standard against a calibration curve.

Data set [2] relates to human nAChR α7. Also on record: method as in PMID 20959364, PMID 22085888. The conditions noted are these: xenopus oocytes expressing human nAChR α7; cited from earlier work.
For data set [3], the system named is human nAChR α7. Also on record: method as in PMID 27467081. The conditions noted are these: intrinsic activity; HEK293 cells expressing human nAChR α7; cited from earlier work.
Data set [4] is described as follows: Plasma pharmacokinetics in satellite animals (LC-MS/MS), 60 min after i.m. dose. The conditions noted are these: individual subjects. How it is done:
For all compounds, plasma pharmacokinetic studies were conducted in a separate cohort of cynomolgus monkeys (N = 2–3 subjects per dose) before beginning vsPAL testing to help guide dose selection. Blood samples were obtained with the animals awake and sitting in a primate chair.
as §1

For a further data set, the system named is 5-HT3 receptor. The conditions noted are these: cited from earlier work.
Details of data set [5]: method as in PMID 25438724. The note with it: 20 mg dose (maximal DSST effects), cited from earlier work.

The structures appear in SMILES notation. Values joined by “and” are separate entries in the source; they are usually repeats but may differ in a detail not shown here. Equal values may be shown once.

Consider `Cl.O=C(N[C@H]1CN2CCC1CC2)c1cc2cccc(Cl)c2s1` [EVP-6124, (R)-7-chloro-N-(quinuclidin-3-yl)benzo[b]thiophene-2-carboxamide HCl], for which the “nM total compound in plasma post session” value was 0.5 nM and 1.4 nM and 1.6 nM and 1.1 nM and 0.496 nM in data set [1] (0.003 mg/kg i.m.); 1.526 nM and 1.174 nM and 1.539 nM in data set [1] (0.01 mg/kg i.m., row); 4.44 nM and 6.8 nM and 3.56 nM in data set [1] (0.03 mg/kg i.m.); 14.8 nM and 14.9 nM and 11.8 nM and 10.9 nM in data set [1] (0.10 mg/kg i.m.); 76.7 nM and 38.4 nM and 48.3 nM and 47.3 nM in data set [1] (0.30 mg/kg i.m.); 196 nM and 145 nM and 188 nM and 192 nM in data set [1] (1.00 mg/kg i.m.). Also, in the data set with human nAChR α7 [2], the “maximal peak current, % of the acetylcholine response” value was 80%. Also, the “net charge relative to acetylcholine” value with human nAChR α7 [3] is 136%. For the same compound, the “peak current response relative to acetylcholine” value in the data set on human nAChR α7 [3] is listed as 32%. Further, the “nM total compound in plasma from satellite animals, 60 min” value in data set [4] (0.03 mg/kg i.m.) was 4.1 nM and 3.5 nM; in data set [4] (0.10 mg/kg i.m.), 9.5 nM; in data set [4] (0.30 mg/kg i.m.), 39.6 nM; in data set [4] (1.00 mg/kg i.m.), 103.0 nM. Also, the 5-HT3 receptor antagonism entry with 5-HT3 receptor is “potent 5-HT3 receptor antagonists”. Also, the “plasma Cmax” value in data set [5] is 10.4 ng/mL. Further, the Cmax in data set [5] (read-out: plasma Cmax) was 32 nM.
